Source: publication PMC8121815 (Nature Communications, 2021)

How the values were obtained:
[1] = target: hTOM70/N-peptide complex (Homo sapiens, UniProt O94826); format: binding
[2] = target: T1, unliganded hTOM70 (cytoplasmic segment of human TOM70) (human); assay: ITC
T1 sequence (O94826 whole entry, looked up): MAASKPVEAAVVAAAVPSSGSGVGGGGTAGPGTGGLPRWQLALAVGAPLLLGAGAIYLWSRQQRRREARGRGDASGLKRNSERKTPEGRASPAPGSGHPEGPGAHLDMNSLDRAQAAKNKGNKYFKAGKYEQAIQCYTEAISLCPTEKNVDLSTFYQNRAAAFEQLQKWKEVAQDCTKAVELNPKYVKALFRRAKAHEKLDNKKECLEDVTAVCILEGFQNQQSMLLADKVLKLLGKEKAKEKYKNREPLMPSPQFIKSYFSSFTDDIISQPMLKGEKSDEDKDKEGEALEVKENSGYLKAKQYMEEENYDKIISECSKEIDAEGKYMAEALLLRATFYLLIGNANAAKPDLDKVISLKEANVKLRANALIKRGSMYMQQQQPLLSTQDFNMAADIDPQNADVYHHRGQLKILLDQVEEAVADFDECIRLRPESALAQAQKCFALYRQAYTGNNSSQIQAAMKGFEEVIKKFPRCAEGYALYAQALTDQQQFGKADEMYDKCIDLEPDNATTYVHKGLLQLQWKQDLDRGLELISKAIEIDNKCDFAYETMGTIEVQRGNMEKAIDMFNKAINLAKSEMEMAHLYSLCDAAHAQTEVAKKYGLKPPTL

[3] = target: T2, SARS-CoV-2 orf9b with an N-terminal His-tag, co-expressed with hTOM70 (SARS-CoV-2, UniProt P0DTD2 1-97); assay: SEC + AUC; settings: both partners purified
T2 construct: also called intact orf9b
T2 sequence (P0DTD2 whole entry): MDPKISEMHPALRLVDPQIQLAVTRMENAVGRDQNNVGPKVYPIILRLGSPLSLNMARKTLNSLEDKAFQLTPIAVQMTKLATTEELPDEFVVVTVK

Molecule: CC[C@H](C)[C@H](N)C(=O)N[C@H](C(=O)N[C@@H](CC(C)C)C(=O)N[C@@H](CCCNC(=N)N)C(=O)N[C@@H](CC(C)C)C(=O)NCC(=O)N[C@@H](CO)C(=O)N1CCC[C@H]1C(=O)N[C@@H](CC(C)C)C(=O)N[C@@H](CO)C(=O)N[C@@H](CC(C)C)C(=O)N[C@@H](CC(N)=O)C(=O)N[C@@H](CCSC)C(=O)N[C@@H](C)C(=O)N[C@@H](CCCNC(=N)N)C(=O)N[C@@H](CCCCN)C(=O)N[C@H](C(=O)N[C@@H](CC(C)C)C(=O)N[C@@H](CC(N)=O)C(=O)N[C@@H](CO)C(=O)N[C@@H](CC(C)C)C(=O)N[C@@H](CCC(=O)O)C(=O)N[C@@H](CC(=O)O)C(=O)N[C@@H](CCCCN)C(=O)N[C@@H](C)C(=O)N[C@@H](Cc1ccccc1)C(=O)N[C@@H](CCC(N)=O)C(=O)O)[C@@H](C)O)[C@@H](C)CC [C-peptide]
- ΔH, enthalpy variation [1]: 0.981 ± 0.024 kcal/mol
- ΔS, entropy variation [1]: 32.5

Molecule: C-peptide (SARS-CoV-2 orf9b core sequence 44-70) (from UniProt P0DTD2 44-70)
- dH [2]: 2.65 kcal/mol

B1: hTOM70 ΔN2 (106-608), co-expressed with orf9b (domain or fragment, human, UniProt O94826 106-608, looked up)
chain: LDMNSLDRAQAAKNKGNKYFKAGKYEQAIQCYTEAISLCPTEKNVDLSTFYQNRAAAFEQLQKWKEVAQDCTKAVELNPKYVKALFRRAKAHEKLDNKKECLEDVTAVCILEGFQNQQSMLLADKVLKLLGKEKAKEKYKNREPLMPSPQFIKSYFSSFTDDIISQPMLKGEKSDEDKDKEGEALEVKENSGYLKAKQYMEEENYDKIISECSKEIDAEGKYMAEALLLRATFYLLIGNANAAKPDLDKVISLKEANVKLRANALIKRGSMYMQQQQPLLSTQDFNMAADIDPQNADVYHHRGQLKILLDQVEEAVADFDECIRLRPESALAQAQKCFALYRQAYTGNNSSQIQAAMKGFEEVIKKFPRCAEGYALYAQALTDQQQFGKADEMYDKCIDLEPDNATTYVHKGLLQLQWKQDLDRGLELISKAIEIDNKCDFAYETMGTIEVQRGNMEKAIDMFNKAINLAKSEMEMAHLYSLCDAAHAQTEVAKKYGLKPPTL
notes: also called TOM70 (106-608); cytosolic domain of hTOM70
- stoichiometry N [3]: 1
